Measured values: publication PMC9551036, “A selective and orally bioavailable VHL-recruiting PROTAC achieves SMARCA2 degradation in vivo” (Nature Communications, 2022)
Values joined by “and” are separate entries in the source; they are usually repeats but may differ in a detail not shown here. Equal entries are not always repeated. Where two headings read alike, the source gives them in different places.

Tests used:
[1] = tested on: P-gp; assay: Bidirectional permeability measurement in Caco-2 cells; format: in vitro ADME; conditions: human, Caco-2, pH 7.4, with zosuquidar 5 µM
Outline: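 Caco-2 monolayers grown 14–21 days, preincubated 24 h with medium containing 1 µM compound; bidirectional transport sampled up to 2 h, quantified by LC-MS/MS, ± 5 µM zosuquidar (P-gp inhibitor). Papp,AB and Papp,BA from receiver amount, donor C0, area and time; efflux ratio = Papp,BA/Papp,AB (duplicate means). TEER checked per plate.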

[2] = biological target: SMARCA2 (Homo sapiens, UniProt P51531); assay: SMARCA2 capillary electrophoresis protein assay in other cell lines (A549, NCI-H1568, HCT116, LU99, HCC-364, HCT-15, HCC4006, SK-N-AS); format: cell-based; set-up: endogenous in cells; host or cells: RKO, NCI-H1568, A549, HCT116, LU99, HCC-364, HCT-15, HCC4006, SK-N-AS
Sequence of SMARCA2 (P51531 whole entry): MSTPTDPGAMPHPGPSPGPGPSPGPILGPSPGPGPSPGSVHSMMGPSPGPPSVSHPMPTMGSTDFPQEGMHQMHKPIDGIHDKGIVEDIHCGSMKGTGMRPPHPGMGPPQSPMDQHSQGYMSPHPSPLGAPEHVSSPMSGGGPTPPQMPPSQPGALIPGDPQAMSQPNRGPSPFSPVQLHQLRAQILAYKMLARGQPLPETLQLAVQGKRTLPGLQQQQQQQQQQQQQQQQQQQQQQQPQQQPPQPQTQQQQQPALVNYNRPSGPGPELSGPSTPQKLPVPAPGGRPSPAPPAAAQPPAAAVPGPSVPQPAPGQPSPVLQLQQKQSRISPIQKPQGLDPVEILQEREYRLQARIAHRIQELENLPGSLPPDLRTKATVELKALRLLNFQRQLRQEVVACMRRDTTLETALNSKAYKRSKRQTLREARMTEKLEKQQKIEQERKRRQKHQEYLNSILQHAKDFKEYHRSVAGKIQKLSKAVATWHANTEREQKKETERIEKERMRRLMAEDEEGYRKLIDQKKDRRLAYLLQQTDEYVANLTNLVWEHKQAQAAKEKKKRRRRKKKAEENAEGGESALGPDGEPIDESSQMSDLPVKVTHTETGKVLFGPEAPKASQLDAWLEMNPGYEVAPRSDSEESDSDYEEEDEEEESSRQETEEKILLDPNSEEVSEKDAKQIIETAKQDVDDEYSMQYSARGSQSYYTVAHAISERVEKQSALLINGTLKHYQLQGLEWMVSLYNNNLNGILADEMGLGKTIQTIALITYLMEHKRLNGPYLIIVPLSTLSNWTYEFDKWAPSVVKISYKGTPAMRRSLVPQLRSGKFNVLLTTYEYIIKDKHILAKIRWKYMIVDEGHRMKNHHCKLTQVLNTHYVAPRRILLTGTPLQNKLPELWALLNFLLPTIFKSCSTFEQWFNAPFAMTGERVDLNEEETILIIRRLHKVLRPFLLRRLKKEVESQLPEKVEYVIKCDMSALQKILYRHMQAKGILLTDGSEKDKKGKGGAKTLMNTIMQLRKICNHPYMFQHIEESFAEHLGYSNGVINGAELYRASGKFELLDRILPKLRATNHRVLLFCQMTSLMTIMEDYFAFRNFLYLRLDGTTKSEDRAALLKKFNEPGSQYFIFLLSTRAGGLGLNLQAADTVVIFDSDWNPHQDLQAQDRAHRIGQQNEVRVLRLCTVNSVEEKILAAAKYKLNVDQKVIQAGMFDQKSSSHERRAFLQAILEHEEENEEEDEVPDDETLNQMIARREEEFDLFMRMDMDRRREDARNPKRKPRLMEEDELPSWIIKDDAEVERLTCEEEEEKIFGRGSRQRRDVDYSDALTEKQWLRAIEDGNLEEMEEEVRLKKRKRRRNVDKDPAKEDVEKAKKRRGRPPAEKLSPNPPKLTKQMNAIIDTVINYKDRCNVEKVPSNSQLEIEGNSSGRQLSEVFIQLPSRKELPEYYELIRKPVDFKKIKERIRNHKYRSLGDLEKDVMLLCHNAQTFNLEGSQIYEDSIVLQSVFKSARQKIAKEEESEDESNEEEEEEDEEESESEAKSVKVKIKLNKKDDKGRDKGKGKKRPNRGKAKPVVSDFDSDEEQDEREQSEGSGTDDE
Description: 130,000–200,000 cells were seeded in 24-well plates and incubated until settled down or overnight. Compounds were dissolved in DMSO and added to cells in indicated concentrations using a digital dispenser following an optional media change. Cells were incubated for 4 or 18 h as indicated. For SMARCA2/4 half-life determination, 150,000 or 200,000 cells were seeded in 24-well plates. The next day, 50 µg/ml cycloheximide (Sigma) was added and cells were incubated for 1–24 h. For SMARCA2/4 re-synthesis measurements, 200,000 cells were seeded in 24-well plates. The next day, 100 nM compound 6 was added for 4 h to degrade SMARCA2/4, and a sample was taken as baseline for normalisation. To allow re-synthesis, a VHL binder (compound 32, 25 or 50 µM) was then added for 3 or 24 h. Medium was removed, cells were washed with PBS and lysed with 80 µl Lysis Buffer (MSD Tris Lysis Buffer (#R60TX-2) + Halt Inhibitor Cocktail (100x) + Benzonase 0.5 µL/ml). Samples were frozen at −80 °C and thawed at room temperature before use. Samples were transferred to a V-bottom plate and insoluble debris was pelleted by centrifugation for 5 min at maximum speed. The supernatant was transferred to a fresh plate. Master Mix and Ladder were prepared according to manufacturer’s instructions for 12–230 kDa Wes Separation Module, 8 × 25 capillary cartridges, Protein Simple #SM-W004 with Anti-Rabbit Detection Module for Wes, Peggy Sue or Sally Sue, Protein Simple #DM-001. 4.8 µl lysate were mixed with 1.2 µl Master Mix to achieve a protein concentration of ~0.5 µg/µl. Antibodies were diluted in Antibody Diluent II (SMARCA2 Sigma #HPA029981 RRID:AB_10602406 1:25–100, SMARCA4 Cell Signalling #49360 clone D1Q7F RRID:AB_2728743 1:15–120 or Abcam #ab110641 clone EPNCIR111A RRID:AB_10861578 1:60, GAPDH Abcam #ab9485 RRID:AB_307275 1:250). Wes plates were prepared and run according to manufacturer’s instructions. Proteins were quantified with accompanying Compass Software. SMARCA2/4 protein levels were normalised to GAPDH. […] Where applicable, curves were fitted using a 4-parametric logistic model.

[3] = Plasma protein binding; format: in vitro ADME; conditions: 10% calf; for fraction unbound at 5 h, 3 µmol/L: bovine, read-out: PPB fu 10% Calf
Description: Binding of compound to plasma proteins was determined by equilibrium dialysis of 3 µmol/L compound in plasma (or plasma dilutions in PBS) against PBS through an 8 kDa molecular-weight cut-off cellulose membrane (RED device, Thermo Fisher) at 37 °C for 5 h. After incubation, aliquots from donor and acceptor compartments were precipitated and the concentrations in the supernatants were determined by quantitative LC-MS/MS. Calibration and quality control samples were prepared using blank plasma and internal standard. The fraction unbound was calculated as ratio of the compound concentration in the acceptor compartment to the concentration in the donor compartment.

Cc1ncsc1-c1ccc([C@H](COC(C)CN2CCC(c3ccc4c(c3)n(C3CCCC3)c3nc(=O)c5c(Br)cccc5n43)CC2)NC(=O)[C@@H]2C[C@@H](O)CN2C(=O)[C@@H](NC(=O)C2(F)CC2)C(C)(C)C)cc1 (some centres unmarked) [compound 9]
Papp A→B at 1 µM ([1]; Modified Caco-2 + PGPi (Zosuquidar), read-out: Modified Caco-2 + PGPi (Zosuquidar) Pab): 12 ± 2 ×10⁻⁶ cm/s
Papp B→A at 2 h, 1 µM ([1]; Modified Caco-2, b to a, + PGPi (Zosuquidar), read-out: Modified Caco-2 Pba + PGPi (Zosuquidar)): 19 ×10⁻⁶ cm/s
Dmax ([2]; NCI-H1568 (4 h), mean ± SD): 92 ± 8%
DC50 ([2]; NCI-H1568 (4 h), mean ± SD, read-out: SMARCA2 DC50): 32 ± 17 nM
DC50 ([2]; NCI-H1568, 4h, individual replicates, read-out: NCI-H1568 (4h) SMARCA2 DC50): 54.9 nM and 24.6 nM and 25.2 nM
PPB fu 10% Calf [3]: 8.695%
fraction unbound at 5 h, 3 µmol/L ([3]; 10% calf plasma dilution in PBS, fraction unbound): 0.07 ± 0.02
fraction unbound at 5 h, 3 µmol/L ([3]; 10% plasma (plasma dilution in PBS)): 0.0538
